Results from patent publication US20220396580A1, “TRICYCLIC DILACTONE COMPOUND, AND PRODUCTION METHOD AND USE THEREOF” (SEOUL NATIONAL UNIVERSITY R&DB FOUNDATION, priority 2020, published 2022).

Tests used:
APP/PS1 transgenic mice = assay: Amyloid-beta aggregates in brain tissue of APP/PS1 transgenic mice (thioflavine S / GFAP staining); type: in vivo, mouse; details: 8 mg/kg/day intraperitoneal for 3 weeks
Method: First, APP/PS1 transgenic mice (7.5-month-old, male, Jackson Laboratory, 9 to 10 mice/group) to which the genes of AD patients were injected were prepared. In the APP/PS1 transgenic mice, human amyloid-beta is expressed at a high level, and Alzheimer-like plaques are formed in the brain.
The prepared mice were intraperitoneally administered daily with rhizolutin at a dose of 8 mg/body weight (kg)/day for 3 weeks. As a negative control group, the prepared mice were intraperitoneally administered with a vehicle only.
Afterwards, the mouse brain was removed, and changes in amyloid-beta aggregates (in the form of oligomer or fibril) as AD biomarkers in the brain tissue were measured.

human A131-42 monomer [1] = biological target: T1, human A131-42 monomer (Homo sapiens, UniProt P05067); assay: Inhibition of amyloid-beta aggregation (thioflavine-T fluorescence); type: biochemical; details: 25 μM amyloid-beta, 1 mM rhizolutin, 37° C., 120 hours
T1 construct: UniProt KB-P05067, a.a; 672 to 713
T1 sequence (P05067 672-713): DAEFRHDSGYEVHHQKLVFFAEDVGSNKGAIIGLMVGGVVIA
Method: An amyloid-beta solution was prepared by dissolving human A131-42 monomer (UniProt KB-P05067, a.a. 672 to 713) in DMSO to have a concentration of 10 mM. Then, the amyloid-beta solution was diluted with distilled water to prepare a solution having a concentration of 100 μM. Meanwhile, thioflavine-T (Sigma-Aldrich) was dissolved in 50 mM glycin buffer (pH 8.5) to have a concentration of 5 mM. Then, the resulting solution was diluted with 50 mM glycin buffer (pH 8.5) to have a concentration of 5 μM, and stored light-blocked in a dark room. To verify the inhibitory activity of rhizolutin on the amyloid-beta aggregation, the amyloid-beta solution was added to 1.5 mL microtubes to a concentration of 25 μM, and rhizolutin was added thereto at a concentration of 1 mM, followed by incubation at 37° C. for 120 hours. […] After a reaction was allowed for 5 minutes at room temperature in the darkroom, fluorescence was measured at an excitation wavelength of 450 nm and an emission wavelength of 485 nm by using a multi-mode microplate reader. Based on the fluorescence intensity of the group (control group) in which only amyloid-beta was treated and aggregated for 120 hours, the fluorescence intensity (%) of each group was calculated, and results are shown in FIG. 3A (one-way ANOVA test followed by Bonferroni's post-hoc comparison test, mean±SEM, ***: p<0.001).

human A131-42 monomer [2] = biological target: T1, human A131-42 monomer; assay: Disaggregation of amyloid-beta aggregates (thioflavine-T fluorescence); type: biochemical
Method: An amyloid-beta solution was prepared by dissolving human A131-42 monomer (UniProt KB-P05067, a.a. 672 to 713) in DMSO to have a concentration of 10 mM. Then, the amyloid-beta solution was diluted with distilled water to prepare a solution having a concentration of 100 μM. Meanwhile, thioflavine-T (Sigma-Aldrich) was dissolved in 50 mM glycin buffer (pH 8.5) to have a concentration of 5 mM. Then, the resulting solution was diluted with 50 mM glycin buffer (pH 8.5) to have a concentration of 5 μM, and stored light-blocked in a dark room. In addition, to verify the activity of rhizolutin on disaggregation of the amyloid-beta aggregation, the amyloid-beta solution was added to a 1.5 mL microtube to a concentration of 25 μM and incubated at 37° C. for 72 hours. Then, 1 mM of rhizolutin was added to each microtube, followed by incubation at 37° C. for 72 hours. […] Then, fluorescence intensity was measured at an excitation wavelength of 450 nm and an emission wavelength of 485 nm by using a multi-mode microplate reader. Based on the fluorescence intensity of the group (control group) in which only amyloid-beta was treated and aggregated for 72 hours, the fluorescence intensity (%) of each group was calculated, and results are shown in FIG. 3B (mean±SEM, *: p<0.05, ***: p<0.001).

[3] = tested on: HT-22 mouse hippocampal neuronal cells and BV2 microglial cells; assay: Immunoblotting of cleaved caspase-3 and Bcl-2 in cells treated with amyloid-beta aggregates; type: cell-based; details: amyloid-beta aggregates and 20 μM rhizolutin together, 24 hours
Description: To verify the inhibitory activity of rhizolutin on the neurotoxicity of the amyloid-beta aggregates, changes in apoptosis-related biomarkers after exposing neurons to the neurotoxicity of the amyloid-beta aggregates were observed. Here, cleaved caspase-3, which is an apoptosis-inducing factor, and B-cell lymphoma 2 (Bcl-2), which inhibits apoptosis, were used as the biomarkers.
HT-22 mouse hippocampal neuronal cells and BV2 microglial cells were inoculated into a plate in a predetermined number. To each of the HT-22 cell line and the BV2 cell line, an amyloid-beta solution prepared in the same manner as in Example 2-2 was added at a concentration of […], followed by incubation at 37° C. for 24 hours. Afterwards, 20 μM of rhizolutin was added to each microtube, followed by incubation with amyloid-beta in a final concentration of 20 μM at 37° C. for 24 hours. As a negative control group, a group without rhizolutin and the amyloid-beta protein was used.
Cleaved caspase-3 and Bcl-2, which are apoptosis-related biomarkers, were identified by immunoblotting, and images thereof are shown in FIG. 5A.

Tau protein [4] = assay: Inhibition of formation of tau aggregates (thioflavin T fluorescence); type: biochemical; details: 1 mM rhizolutin vs 20 mM EPPS
Method: Tau protein was prepared at a concentration of 1 mg/mL, and as described in Example 2-3, the prepared tau protein was added to a 1.5 mL microtube at a concentration of 0.5 mg/mL, and 1 mM of rhizolutin and 20 mM of EPPS were added thereto, followed by incubation at 37° C. for 120 hours.
(§1) Thioflavin T was added to the reaction, and the fluorescence intensity was measured at an excitation wavelength of 450 nm and an emission wavelength of 485 nm. As a negative control group, a vehicle without the tau protein and rhizolutin was used.
(§2) Based on the fluorescence intensity of the group in which only the tau protein was treated (positive control group), the fluorescence intensity (%) of each group was calculated, and results are shown in FIGS. 6A and 6B (mean±SEM, *: p<0.01, ***: p<0.001).

Tau protein [5] = assay: Disaggregation of tau aggregates (thioflavin T fluorescence); type: biochemical; details: 1 mM rhizolutin vs 20 mM EPPS
Method: Meanwhile, the tau protein was added to a 1.5 mL microtube at a concentration of 0.5 mg/mL, and incubated at 37° C. for 48 hours. Then, rhizolutin was added at a concentration of 1 mM, and incubated at 37° C. for 72 hours. To compare the efficacy, EPPS was added at a concentration of 20 mM, and incubated under the same conditions.
as §1, §2

- formation of amyloid-beta aggregates (oligomer or fibril) (human A131-42 monomer [1]): significantly inhibited
- amyloid-beta disaggregation activity compared with EPPS (human A131-42 monomer [2]; 1 mM rhizolutin vs 20 mM EPPS, same conditions): better than that of EPPS
Structure (SMILES): CC[C@H]1C[C@@H]2/C(C)=C/[C@@H]3OC(=O)C[C@@H](O)C[C@H]3/C=C/C(C)=C\[C@H]2C(=O)O1 [rhizolutin]
- GFAP, biomarker of neuroinflammation (astrocytosis around the plaques) (APP/PS1 transgenic mice; brain tissue): also decreased
- number of amyloid-beta plaques in the hippocampus of the brain (APP/PS1 transgenic mice; thioflavine S, vs negative control group): decrease in the number of amyloid-beta plaques
- disaggregation of amyloid-beta aggregates (oligomer or fibril) (human A131-42 monomer [2]; 25 μM amyloid-beta pre-aggregated 72 hours, then 1 mM rhizolutin 72 hours, 37° C.): disaggregated the amyloid-beta aggregates
- expression of Bcl-2 [3]: the expression of Bcl-2 increased
- expression of cleaved caspase-3 [3]: the expression of cleaved caspase-3 decreased
- inhibiting formation of tau aggregates compared with EPPS (Tau protein [4]): better effects
- disaggregating tau aggregates compared with EPPS (Tau protein [5]): better effects
